Assay results published in US11304962B2, “Methods of reducing risk of preterm birth” (COVIS Pharma GmbH, priority 2015, dated 2022).
≈ marks a conversion by molar mass, not a printed value. Read-outs that look alike come from different tables or passages of the source.

Key:
[1] = Single-dose crossover pharmacokinetic study of 17-HPC, SQ (upper anterior thigh) vs IM (gluteus maximus) injection; assay type: in vivo, human; details: for AUC(0-t) / Cmax: female, human, single dose, healthy postmenopausal women, plasma; for AUC(0-t): read-out: AUC0-t, LS Geometric Mean; for Cmax: read-out: Cmax, LS Geometric Mean
Method: An open-label, randomized, single-dose, two-period, two-treatment, four-sequence, crossover study was conducted to compare equal 250 mg doses of 17-HPC injections, 250 mg/ml given as either a 1 mL deep IM injection to the upper outer quadrant of the gluteus maximus or a 1 mL SQ injection to the upper anterior thigh. The study was conducted with 12 healthy, non-tobacco using postmenopausal adult women. The subjects were given the SQ injection in one study period and the IM injection in the other study period according to the four-sequence randomization schedule. Blood was taken at 4, 24, 48, 72, 96, 120 and 144-hours post-treatment, and plasma concentrations of 17-HPC were measured. The interval between doses was 21 days. The analytical data were used to estimate the pharmacokinetic parameters AUC0-t, Cmax, and Tmax.

[2] = Randomized bioavailability study of 17-HPC, SC injection in triceps area (1.1 or 1.2 mL) vs IM injection (1.0 mL); assay type: in vivo, human; details: for AUC(0-t) / AUC(0-inf) / Cmax / Tmax / half-life: female, human, plasma; for Cmax: healthy postmenopausal women, read-out: Cmax, geometric mean (geometric CV); for Tmax: read-out: Tmax, median; for half-life: read-out: t½, geometric mean (geometric CV) (converted)
Method: A randomized study is conducted to compare the bioavailability and injection site pain when 17-HPC, 250 mg/mL, is administered as a single 1.0 mL IM injection (250 mg) in the gluteus maximus or a 1.1 (275 mg) or 1.2 mL (300 mg) SQ injection in the triceps area of healthy post-menopausal women. Patients are randomized into two groups by route of administration. Group A receives a 1.0 mL IM injection of 17-HPC into the upper outer quadrant of the gluteus maximus. Group B receives a 1.1 or 1.2 mL SC injection into the upper outer thigh or arm (triceps area). Patient reported outcomes of injection site pain are collected to assess the safety and usability of SQ administration, either by medical staff or for self-administration of 17-HPC.
All patients have blood drawn prior to administration of 17-HPC, and at 2, 4, 8, 12, 18 and 24 hours post dose, and again at approximately the same time as dosing on days 2-7, 14, 21, and 28.

[3] = Solubility of HPC in benzyl benzoate/castor oil mixtures; assay type: physicochemical; details: for solubility: benzyl benzoate/castor oil mixture, oil or lipid, read-out: mg HPC/mL solution (solubility)
Text: Weight percent of BB is relative to the castor oil.

[4] = 250 mg SQ thigh vs 250 mg IM gluteus maximus
[5] = subcutaneous, SQ injection 250 mg (1 mL) upper anterior thigh
[6] = IM injection 250 mg (1 mL) gluteus maximus
[7] = IM 1.0 mL (250 mg) gluteus maximus
[8] = SC 1.1 mL (275 mg) triceps area
[9] = SC 1.2 mL (300 mg) triceps area
[10] = 25° C., 63.33 wt % BB relative to castor oil

SMILES: CCCCCC(=O)O[C@]1(C(C)=O)CC[C@H]2[C@@H]3CCC4=CC(=O)CC[C@]4(C)[C@H]3CC[C@@]21C [17-HPC, 17-alpha-hydroxyprogesterone caproate]
- AUC0-t LSGM Ratio A (SQ) vs B (IM) [1, 4]: 73.85%
- Cmax LSGM Ratio A (SQ) vs B (IM) [1, 4]: 68.39%
- AUC(0-t) [1, 5]: 458 ng·h/mL
- Cmax [1, 5]: 4.2 ng/mL
- AUC(0-t) [1, 6]: 621 ng·h/mL
- Cmax [1, 6]: 6.14 ng/mL
- […]z, geometric mean (geometric CV) [2, 7]: 0.0031 (37.3) [11] 1/hr
- […]z, geometric mean (geometric CV) [2, 8]: 0.0031 (26.8) [17] 1/hr
- […]z, geometric mean (geometric CV) [2, 9]: 0.0031 (38.4) [14] 1/hr
- AUC(0-t) Least Squares Geometric Mean Ratio, Estimate ([2]; SC (1.1 mL) vs. IM (1.0 mL)): 103.64%
- AUC(inf) Least Squares Geometric Mean Ratio, Estimate ([2]; SC (1.1 mL) vs. IM (1.0 mL)): 100.71%
- Cmax Least Squares Geometric Mean Ratio, Estimate ([2]; SC (1.1 mL) vs. IM (1.0 mL)): 123.42%
- AUC(0-t) Least Squares Geometric Mean Ratio, Estimate ([2]; SC (1.1 mL) vs. SC (1.2 mL)): 94.40%
- AUC(inf) Least Squares Geometric Mean Ratio, Estimate ([2]; SC (1.1 mL) vs. SC (1.2 mL)): 91.63%
- Cmax Least Squares Geometric Mean Ratio, Estimate ([2]; SC (1.1 mL) vs. SC (1.2 mL)): 107.50%
- AUC(0-t) Least Squares Geometric Mean Ratio, Estimate ([2]; SC (1.2 mL) vs. IM (1.0 mL)): 109.78%
- AUC(inf) Least Squares Geometric Mean Ratio, Estimate ([2]; SC (1.2 mL) vs. IM (1.0 mL)): 109.91%
- Cmax Least Squares Geometric Mean Ratio, Estimate ([2]; SC (1.2 mL) vs. IM (1.0 mL)): 114.81%
- AUC(0-t) ([2]; im, 250 mg, IM 1.0 mL (250 mg) gluteus maximus, read-out: AUC(0-t), Least Squares Geometric Mean): 2680 ng·h/mL
- AUC(0-t) ([2]; im, 250 mg, IM 1.0 mL (250 mg) gluteus maximus, read-out: AUC(0-t), geometric mean (geometric CV)): 2680 ng·h/mL
- AUC(0-inf) ([2]; im, 250 mg, IM 1.0 mL (250 mg) gluteus maximus, read-out: AUC(inf), Least Squares Geometric Mean): 2910 ng·h/mL
- AUC(0-inf) ([2]; im, 250 mg, IM 1.0 mL (250 mg) gluteus maximus, read-out: AUC(inf), geometric mean (geometric CV)): 2910 ng·h/mL
- AUC(0-t) ([2]; sc, 275 mg, SC 1.1 mL (275 mg) arm, read-out: AUC(0-t), Least Squares Geometric Mean): 2770 ng·h/mL
- AUC(0-inf) ([2]; sc, 275 mg, SC 1.1 mL (275 mg) arm, read-out: AUC(inf), Least Squares Geometric Mean): 2930 ng·h/mL
- AUC(0-t) ([2]; sc, 275 mg, SC 1.1 mL (275 mg) triceps area, read-out: AUC(0-t), geometric mean (geometric CV)): 2770 ng·h/mL
- AUC(0-inf) ([2]; sc, 275 mg, SC 1.1 mL (275 mg) triceps area, read-out: AUC(inf), geometric mean (geometric CV)): 2940 ng·h/mL
- AUC(0-t) ([2]; sc, 300 mg, SC 1.2 mL (300 mg) arm, read-out: AUC(0-t), Least Squares Geometric Mean): 2940 ng·h/mL
- AUC(0-inf) ([2]; sc, 300 mg, SC 1.2 mL (300 mg) arm, read-out: AUC(inf), Least Squares Geometric Mean): 3200 ng·h/mL
- AUC(0-t) ([2]; sc, 300 mg, SC 1.2 mL (300 mg) triceps area, read-out: AUC(0-t), geometric mean (geometric CV)): 2940 ng·h/mL
- AUC(0-inf) ([2]; sc, 300 mg, SC 1.2 mL (300 mg) triceps area, read-out: AUC(inf), geometric mean (geometric CV)): 3200 ng·h/mL
- Cmax [2, 7]: 7.08 ng/mL
- Tmax [2, 7]: 120 h
- half-life [2, 7]: 220 h
- Cmax [2, 8]: 8.74 ng/mL
- Tmax [2, 8]: 24 h
- half-life [2, 8]: 223 h
- Cmax [2, 9]: 8.13 ng/mL
- Tmax [2, 9]: 48 h
- half-life [2, 9]: 225 h
- Avg. HPC wt % (solubility) ([3]; 5° C., 53.01 wt % BB relative to castor oil): 18.60 wt %
- Avg. HPC wt % (solubility) ([3]; 5° C., 63.33 wt % BB relative to castor oil): 20.31 wt %
- Avg. HPC wt % (solubility) ([3]; 5° C., 69.43 wt % BB relative to castor oil): 21.62 wt %
- Avg. HPC wt % (solubility) ([3]; 5° C., 75.59 wt % BB relative to castor oil): 23.00 wt %
- Avg. HPC wt % (solubility) ([3]; 5° C., 81.79 wt % BB relative to castor oil): 24.65 wt %
- Avg. HPC wt % (solubility) ([3]; 5° C., 87.91 wt % BB relative to castor oil): 25.22 wt %
- Avg. HPC wt % (solubility) ([3]; 15° C., 53.01 wt % BB relative to castor oil): 20.49 wt %
- Avg. HPC wt % (solubility) ([3]; 15° C., 63.33 wt % BB relative to castor oil): 22.96 wt %
- Avg. HPC wt % (solubility) ([3]; 15° C., 69.43 wt % BB relative to castor oil): 24.28 wt %
- Avg. HPC wt % (solubility) ([3]; 15° C., 75.59 wt % BB relative to castor oil): 25.97 wt %
- Avg. HPC wt % (solubility) ([3]; 15° C., 81.79 wt % BB relative to castor oil): 27.32 wt %
- Avg. HPC wt % (solubility) ([3]; 15° C., 87.91 wt % BB relative to castor oil): 28.30 wt %
- Avg. HPC wt % (solubility) ([3]; 25° C., 53.01 wt % BB relative to castor oil): 24.08 wt %
- Avg. HPC wt % (solubility) [3, 10]: 27.17 wt %
- Avg. HPC wt % (solubility) ([3]; 25° C., 69.43 wt % BB relative to castor oil): 28.76 wt %
- Avg. HPC wt % (solubility) ([3]; 25° C., 75.59 wt % BB relative to castor oil): 30.62 wt %
- Avg. HPC wt % (solubility) ([3]; 25° C., 81.79 wt % BB relative to castor oil): 31.98 wt %
- Avg. HPC wt % (solubility) ([3]; 25° C., 87.91 wt % BB relative to castor oil): 33.26 wt %
- solubility data over multiple days ([3]; BB/castor oil with and without benzyl alcohol, 5, 15, 25° C., over 5 days): fairly constant
- solubility ([3]; 5 °C, 5° C., 53.01 wt % BB relative to castor oil): 200 mg/mL (≈ 467 mM)
- solubility ([3]; 5 °C, 5° C., 63.33 wt % BB relative to castor oil): 222 mg/mL (≈ 518 mM)
- solubility ([3]; 5 °C, 5° C., 69.43 wt % BB relative to castor oil): 238 mg/mL (≈ 555 mM)
- solubility ([3]; 5 °C, 5° C., 75.59 wt % BB relative to castor oil): 253 mg/mL (≈ 590 mM)
- solubility ([3]; 5 °C, 5° C., 81.79 wt % BB relative to castor oil): 273 mg/mL (≈ 637 mM)
- solubility ([3]; 5 °C, 5° C., 87.91 wt % BB relative to castor oil): 284 mg/mL (≈ 663 mM)
- solubility ([3]; 15 °C, thermodynamic from solid, 15° C., 53.01 wt % BB relative to castor oil): 220 mg/mL (≈ 513 mM)
- solubility ([3]; 15 °C, thermodynamic from solid, 15° C., 63.33 wt % BB relative to castor oil): 254 mg/mL (≈ 593 mM)
- solubility ([3]; 15 °C, thermodynamic from solid, 15° C., 69.43 wt % BB relative to castor oil): 269 mg/mL (≈ 628 mM)
- solubility ([3]; 15 °C, thermodynamic from solid, 15° C., 75.59 wt % BB relative to castor oil): 289 mg/mL (≈ 674 mM)
- solubility ([3]; 15 °C, thermodynamic from solid, 15° C., 81.79 wt % BB relative to castor oil): 306 mg/mL (≈ 714 mM)
- solubility ([3]; 15 °C, thermodynamic from solid, 15° C., 87.91 wt % BB relative to castor oil): 320 mg/mL (≈ 747 mM)
- solubility ([3]; 25 °C, 25° C., 69.43 wt % BB relative to castor oil): 321 mg/mL (≈ 749 mM)
- solubility ([3]; 25 °C, 25° C., 75.59 wt % BB relative to castor oil): 347 mg/mL (≈ 810 mM)
- solubility ([3]; 25 °C, 25° C., 81.79 wt % BB relative to castor oil): 363 mg/mL (≈ 847 mM)
- solubility ([3]; 25 °C, 25° C., 87.91 wt % BB relative to castor oil): 382 mg/mL (≈ 891 mM)
- solubility ([3]; 25 °C, thermodynamic from solid, 25° C., 53.01 wt % BB relative to castor oil): 262 mg/mL (≈ 611 mM)
- solubility [3, 10]: 303 mg/mL (≈ 707 mM)
